According to US20130089591A1, “Compositions” (Givaudan SA, priority 2010, published 2013):

How the values were obtained:
[1] = Aggregation of polyamide capsules (Example 2 method); format: physicochemical; set-up: key to Encapsulation, No precursor (scale of aggregation) / Encapsulation, With precursor (scale of aggregation): ∘: no aggregation of the capsules; +: aggregation of few capsules together only visible under microscopy; ++: aggregates of mm size; +++: important aggregation; ++++: aggregation is such that a cake is obtained; details: for Encapsulation, No precursor (scale of aggregation): free aldehyde as phase B at 5% in phase A of Table 1; for Encapsulation, With precursor (scale of aggregation): precursor of the aldehyde (Method 1.1) as phase B at 5% in phase A of Table 1
Procedure: An oil phase was prepared by dissolving isophtahaloyl dichloride (Fluka) in oil (oil composition specified in the examples below) at a level of 10%
An aqueous solution (Solution S1) was prepared by dissolving a polyvinyl alcohol Mowiol 4-88 (Kuru ray) in water at a level of 1%.
An aqueous solution (Solution S2) was prepared when triethylentetraamine (Hunstman) was diluted in water at a level of 3%.
100 g of the oil phase was mixed with 450 g of solution S1 to form an oil-in-water emulsion in a 1 L reactor equipped with a MIG stirrer operating at 1000 rpm. After 5 minutes of mixing, 450 g of solution S2 was slowly added. The resultant slurry of polyamide capsules was kept under stirring for 2 H.
Two capsule populations were formed. A first encapsulating IPM (isopropyl myristate) and a second containing IPM+5% of ethyl vaniline. The capsules were made according to the method of Example 2.
The methodology of Example 2 was applied to encapsulate different perfume oils described as phase A (non aldehyde raw materials) and phase B (aldehyde raw materials).
The phase B was added at 5% to the phase A prior to encapsulation. Different compositions of phase B have been used corresponding each time to a single aldehyde perfume molecule or to its precursor formed according to the methodology of Method 1.1, above.
According to the condition of the slurry a scale of aggregation has been defined as follows: […]
(§1) ∘ no aggregation of the capsules + aggregation of few capsules together only visible under microscopy ++ aggregates of mm size +++ important aggregation ++++ aggregation is such that a cake is obtained

[2] = Aggregation of polyurea capsules, Method 5.5; format: physicochemical; set-up: key: ∘: no aggregation of the capsules; +: aggregation of few capsules together only visible under microscopy; ++: aggregates of mm size; +++: important aggregation; ++++: aggregation is such that a cake is obtained; details: polyurea Method 5.5, phase A of Table 1; for Encapsulation, No precursor (scale of aggregation): free aldehyde as phase B; for Encapsulation, With precursor (scale of aggregation): precursor (Method 1.1) as phase B
Procedure: An oil phase was prepared when Desmodur W and Desmodur N3300 (Bayer) were added in perfume oil at a level of 2.2% and 13% respectively.
An aqueous phase (Solution S1) was prepared when Gantrez AN119 (ISP) was added to water, at a level of 1.6%. The solution was heated at 70° C. for 10 min to disperse the polymer.
An aqueous phase (Solution S2) was prepared when Ethylene diamine (Merck) was added to water, at a level of 7.5%.
30 g of the oil phase was mixed with 80 g of solution S1, to form an oil-in-water emulsion, in a 250 mL vessel equipped with a propeller operating at 1000 rpm.
After 10 min of stirring, 20 g of solution S2 was added.
The slurry was stirred for 30 min at room temperature, then heated to 60° C. and stirred for 3 H at 60° C. before cooling.
The Method 5.5 of Example 5 was applied to encapsulate different perfume oils described as phase A (non aldehyde raw materials) and phase B (aldehyde raw materials).
The composition of Phase A was described in Table 1 above. Phase B is an aldehyde perfume molecule used as such or as its precursor form prepared according to Method 1.1.
According to the aspect of the slurry a scale of aggregation was defined as follow: […]
as §1
Phase B was added at a level of 20% of aldehyde in phase A.

[3] = Aggregation of polyurea capsules, Method 5.6; format: physicochemical; set-up: key: ∘: no aggregation of the capsules; +: aggregation of few capsules together only visible under microscopy; ++: aggregates of mm size; +++: important aggregation; ++++: aggregation is such that a cake is obtained; details: polyurea Method 5.6, phase A of Table 1; for Encapsulation, No precursor (scale of aggregation): free aldehyde as phase B; for Encapsulation, With precursor (scale of aggregation): precursor (Method 1.1) as phase B
Procedure: An oil phase was prepared when Desmodur VL R20 (Bayer) was added in perfume oil at a level of 2.5%.
An aqueous phase (Solution S1) was prepared when Mowiol 4-88 (Kururay) was added in water, at a level of 0.1%.
An aqueous phase (Solution S2) was prepared when diethylentriamine (Merck) was added in water, at a level of 2%.
100 g of oil phase was mixed with 250 g of solution S1, to form an oil-in-water emulsion, in a 500 mL vessel equipped with a propeller operating at 1000 rpm.
After 10 min of stirring, 50 g of solution S2 was added.
The slurry was stirred for 4 h at room temperature.
The Method 5.6 of Example 5 was applied to encapsulate different perfume oils described as phase A (non aldehyde raw materials) and phase B (aldehyde raw materials).
The composition of Phase A is described in Table 1. Phase B is an aldehyde perfume molecule used as such or as its precursor form prepared according to Method 1.1.
According to the aspect of the slurry a scale of aggregation has been defined as follow: […]
as §1

[4] = Aggregation of polyurea capsules, Method 5.7; format: physicochemical; details: polyurea Method 5.7; phase B at 5% in phase A of Table 1
Procedure: An oil phase was prepared when Desmodur N3300 (Bayer) was added in perfume oil at a level of 6.7%.
An aqueous phase (Solution S1) was prepared when_Mowiol 4-88 (Kururay) was added in water, at a level of 1.1%.
An aqueous phase (Solution S2) was prepared when Hydrosil 1151 (Evonik) was added in water, at a level of 75%.
134 g of oil phase was mixed with 440 g of solution 51, to form an oil-in-water emulsion, in a 1 L vessel equipped with a propeller operating at 1000 rpm.
After 10 min of stirring, 45 g of solution S2 was added.
[…] the slurry was kept at 40° C. for 2 h more before cooling.
The Method 5.7 of Example 5 was applied to encapsulate different perfume oils described as phase A (non aldehyde raw materials) and phase B (aldehyde raw materials).
The composition of Phase A is described in Table 1. Phase B is an aldehyde perfume molecule used as such or as its precursor form added at a level of 5% in Phase A.

[5] = Aggregation of polyurea capsules, Method 5.1; format: physicochemical
Procedure: An oil phase was prepared by adding Desmodur W (Isocyanate from Bayer) to a perfume oil at a level of 16.6%.
An aqueous phase (solution S1) was prepared by adding Luviskol k90 (BASF) to water, at a level of 4.5%. The pH of the solution was adjusted to 11.5 by addition of NaOH at 10%.
An aqueous phase (Solution S2) was prepared when Lupasol PR8515 (BASF) was added to water, at a level of 10%.
300 g of the oil phase was mixed with 500 g of solution S1, to form an oil-in-water emulsion, in a 1 L reactor equipped with a MIG stirrer operating at 1000 rpm.
After 30 minutes of mixing, 200 g of solution S2 was added over a period of 1 minute.
After 30 minutes, the slurry was heated up to 70° C. (1 H), then kept for 2 H at 70° C., then heated to 80° C. and kept for 1 H at 80° C., then heated to 85° C. and kept for 1 H at 85° C., then cooled to 70° C. and kept for 1 H at 70° C. before final cooling at 25° C.
The Method 5.1 of Example 5 was applied to encapsulate different perfume oils described as phase A (non aldehyde raw materials) and phase B (aldehyde raw materials).
In the following trials, phase A was IPM and phase B was aldehyde perfume molecules. Phase B was added at a level of 5% in phase A.
Phase B contains aldehyde C11 iso or the corresponding precursor prepared according to Method 1.1.
Phase B was added at a level of 5% in phase A.

[6] = Aggregation of polyurea capsules, Method 5.4; format: physicochemical; details: polyurea Method 5.4; phase B at 4% of aldehyde in phase A
Procedure: An oil phase was prepared when Desmodur W (Bayer) was added in perfume oil at a level of 16.6%.
An aqueous phase (Solution S1) was prepared when Mowiol 40-88 (Kururay) was added in water, at a level of 4.5%.
An aqueous phase (Solution S2) was prepared when Lupasol PR8515 (BASF) was added in water, at a level of 10%.
240 g of oil phase was mixed with 640 g of solution S1, to form an oil-in-water emulsion, in a 1 L reactor equipped with a mig operating at 1000 rpm.
After 30 min, the slurry is heated up to 50° C. and the solution S2 is slowly added (1 H).
The slurry is then heated up to 70° C. and kept for 2 H at 70° C., then heated to 80° C. and kept for 1 H at 80° C., then heated to 85° C. and kept for 1 H at 85° C., then cooled to 70° C. and kept for 1 H at 70° C. before final cooling at 25° C.
The Method 5.4 of Example 5 was applied to encapsulate different perfume oils described as phase A (non aldehyde raw materials) and phase B (aldehyde raw materials).
Phase B is tricyclal or the precursor of tricyclal obtained according to Method 1.1.
Phase B was added at a level of 4% of aldehyde in phase A.

[7] = Water solubility of the aldehyde

Row | Structure (SMILES) | Encapsulation, No precursor (scale of aggregation) [1] | Encapsulation, With precursor (scale of aggregation) [1] | Encapsulation, No precursor (scale of aggregation) [2] | Encapsulation, With precursor (scale of aggregation) [2] | Encapsulation, No precursor (scale of aggregation) [3] | Encapsulation, With precursor (scale of aggregation) [3] | Slurry aspect [4] | Quality of the capsules examined microscopically ([5]; IPM + aldehyde) | Encapsulation (aggregation) ([5]; free aldehyde at 5% in IPM) | Aggregation of the capsules obtained [6] | Water solubility ([7]; Table 2) [ppm] | Water solubility ([7]; Table 3) [ppm] | Water solubility ([7]; Table of Example 11) [ppm] | Water solubility ([7]; Table of Example 13) [ppm]
1 | CC(C=O)Cc1ccc(C(C)(C)C)cc1 (centres unmarked) [Lilial] | ++ | ∘ | ∘ | ∘ | ∘ | ∘ | cake |  |  |  |  |  |  | 
2 | CC1=CC(C)C(C=O)CC1 (centres unmarked) [Tricyclal] | ++++ | ∘ | ++++ | ∘ | +++ | ∘ |  | aggregated | Aggregation | slightly aggregated | 700 | 700 | 700 | 700
